Measurements taken from publication PMC9467586, “Development of novel 9-O-substituted-13-octylberberine derivatives as potential anti-hepatocellular carcinoma agents” (Journal of Enzyme Inhibition and Medicinal Chemistry, 2022).

How the values were obtained:
Huh-7 cells = experiment: In vitro antiproliferative MTT assay, Huh-7 cells; format: cell-based, human; conditions: Homo sapiens, 72 h, mean ± SD (n = 3)
Procedure: (§1) HepG2, Sk-Hep-1, Huh-7, Hep3B and L-02 cells were purchased from Nanjing Key Gen Biotech Co. Ltd. (Nanjing, China). The cytotoxicity of test compounds was determined using an MTT assay. Briefly, the cell lines were incubated at 37 °C in a humidified 5% CO2 incubator for 24 h in 96-microwell plates. After medium removal, 100 μL of culture medium with 0.1% DMSO containing test compounds at different concentrations was added to each well and incubated at 37 °C for another 72 h. The MTT (5 mg/mL in PBS) was added and incubated for another 4 h, the optical density was detected with a microplate reader at 490 nm. The IC50 values were calculated according to the dose-dependent curves. All the experiments were repeated in at least three independent experiments.

c-MYC G4 DNA (FPu18T) = experiment: FRET-melting assay, FPu18T (c-MYC G4 DNA model); conditions: 2 μM compounds
HepG2 cells [1] = experiment: In vitro antiproliferative MTT assay, HepG2 cells; format: cell-based, human; conditions: Homo sapiens, 72 h, mean ± SD (n = 3), read-out: IC50 (antiproliferative activity against HepG2 cells)
Procedure: as §1

HepG2 cells [2] = experiment: Annexin V-FITC/PI apoptosis assay, flow cytometry; format: cell-based, human; conditions: 72 h (control 6.28%)
Procedure: Briefly, after treatment with or without 6k at indicated concentrations for 72 h, the cells were washed twice in PBS, centrifuged and resuspended in 500 μL AnnexinV binding buffer. The cells were then harvested, washed and stained with 5 μL Annexin V-FITC and 5 μL PI in the darkness for 15 min. Apoptosis was analysed using a FACS Calibur flow cytometer (BectoneDickinson, San Jose, CA, USA).

normal hepatocytes L-02 = experiment: MTT cytotoxicity assay, normal hepatocytes L-02; format: cell-based; conditions: Hepatocyte; normal hepatocytes L-02, MTT, 72 h, mean ± SD (n = 3)
Procedure: as §1

HepG2 cells [3] = experiment: Mitochondrial membrane potential (MMP) measurement with JC-1; format: cell-based, human; conditions: 72 h (control 1.90%)
Procedure: HepG2 cells were incubated with 6k as described above. After incubation for 72 h, the cells were washed in PBS and resuspended in 500 μL JC-1 incubation buffer at 37 °C for 15 min. Then, […] was immediately assessed for a red fluorescence using a microplate reader (ELx80, Bio-Tek, USA). The fluorescent signal of monomers was measured with an excitation wavelength of 488 nm. The percentage of cells with healthy or collapsed mitochondrial membrane potentials was monitored by flow cytometry analysis (BectoneDickinson, San Jose, CA, USA).

HepG2 cells [4] = experiment: Cell cycle analysis by PI staining and flow cytometry; format: cell-based, human; conditions: for G2 phase cell percentage: 72 h (control 18.00%); for S phase cell percentage: 72 h (control 22.95%); for G1 phase cell percentage: 72 h (control 59.05%)
Procedure: HepG2 cells were seeded into 6-well plates and incubated at 37 °C in a humidified 5% CO2 incubator for 24 h, and then treated with or without 6k at indicated concentrations for another 72 h. The collected cells were fixed by adding 70% ethanol at 4 °C for 12 h. Subsequently, the cells were resuspended in PBS containing 100 μL RNase A and 400 μL of PI for 30 min. The DNA content of the cells was measured using a FACS Calibur flow cytometer (BectoneDickinson, San Jose, CA, USA).

Hep3B cells = experiment: In vitro antiproliferative MTT assay, Hep3B cells; format: cell-based, human; conditions: Homo sapiens, 72 h, mean ± SD (n = 3)
Procedure: as §1

[5] = tested on: Bax, Bcl-2, cytochrome C and caspase-3; experiment: Western blot of apoptosis-related proteins; format: cell-based, human; conditions: HepG2, 72 h, concentration-dependent
Procedure: HepG2 cells were incubated with different doses of 6k for 72 h. Cells were collected, centrifuged, and washed two times with ice-cold PBS. The pellet was then re-suspended in lysis buffer. After the cells were lysed on ice for 20 min, lysates were centrifuged at 13000 g at 4 °C for 15 min. The protein concentration in the supernatant was determined using the BCA protein assay reagents. Equal amounts of protein (20 μg) were resolved using sodium dodecyl sulfate-polyacrylamide gel electrophoresis (SDS-PAGE) (10–12% acrylamide gels) and transferred to PVDF membrane. Membranes were blocked for 1 h at room temperature. Membranes were then incubated with primary antibodies against p-cdc25c, cdc2, cyclin B1, Bax, Bcl-2, cytochrome C, caspase-3, VDAC1 and β-actin, the membrane being gently rotated overnight at 4 °C. The bound antibodies were detected using horseradish peroxidase (HRP)-conjugated second antibodies and visualised by the enhanced chemiluminescent reagent.

Sk-Hep-1 cells = experiment: In vitro antiproliferative MTT assay, Sk-Hep-1 cells; format: cell-based, human; conditions: Homo sapiens, SK-HEP1, 72 h, mean ± SD (n = 3)
Procedure: as §1

[6] = LWP coefficient (log D) measurement, shake flask; format: physicochemical; conditions: pH 7.4
Procedure: Berberine, 3c and 6k of 1 mg were dissolved in three centrifugal tubes (5 ml) containing phosphate buffer (pH 7.4)-saturated 1-octanol solution (2 mL), followed by the addition of 1-octanol saturated PBS (2 mL). Each tube was vigorously mixed for 1 min and then shaken for 6 h at a speed of 1000 rpm at 37 °C. The mixtures were then centrifuged. 1 mL of 1-octanol phase and 1 mL of buffer were separately collected. Each phase was diluted to a suitable concentration and analysed by HPLC (Shimadzu DGU-20A3R) on a Shimadzu-GL WondaSil C18-WR column (λ = 254 nm) with an eluent of methanol/water (65/35, v/v, 1.0 ml/min). The log D value for each compound was calculated from the ratio of the peak areas using the following equation: Log D = log (Areaoct × x/Areabuf × y). x, y is the dilution factor.

duplex DNA (F10T) = experiment: FRET-melting assay, F10T (duplex DNA model); format: binding; conditions: 2 μM compounds

CCCCCCCCc1c2[n+](cc3c(OCCCCCCCCN4CCN(C)CC4)c(OC)ccc13)CCc1cc3c(cc1-2)OCO3.[Br-] [Compound 6k, 10-Methoxy-9-((8–(4-methylpiperazin-1-yl)octyl)oxy)-13-octyl-5,6-dihydro-[1,3]dioxolo[4,5-g]isoquinolino[3,2-a]isoquinolin-7-ium bromide]
melting point: 151 to 153 °C
IC50 (Huh-7 cells): 620 ± 40 nM
ΔTm(A) = Tm(FPu18T + compound) - Tm(FPu18T) (c-MYC G4 DNA (FPu18T)): 13.8 °C
IC50 (HepG2 cells [1]): 760 ± 60 nM
total apoptotic cells (Q2 + Q3) (HepG2 cells [2]; HepG2, 0.25 μM): 16.42%
total apoptotic cells (Q2 + Q3) (HepG2 cells [2]; HepG2, 0.50 μM): 34.29%
total apoptotic cells (Q2 + Q3) (HepG2 cells [2]; HepG2, 1.0 μM): 59.17%
IC50 (normal hepatocytes L-02): 7680 ± 670 nM
percentage of cells with green fluorescence (JC-1) (HepG2 cells [3]; HepG2, 0.25 μM): 10.33%
percentage of cells with green fluorescence (JC-1) (HepG2 cells [3]; HepG2, 1.0 μM): 37.52%
Effect on cell cycle progression (HepG2 cells [4]; HepG2, 0.25-1.0 μM, 72 h): cell cycle arrest at G2/M phase
G2 phase cell percentage (HepG2 cells [4]; HepG2, 6k 0.25 μM): 23.56%
S phase cell percentage (HepG2 cells [4]; HepG2, 6k 0.25 μM): 16.19%
G1 phase cell percentage (HepG2 cells [4]; HepG2, 6k 0.25 μM): 60.24%
G2 phase cell percentage (HepG2 cells [4]; HepG2, 6k 0.50 μM): 29.49%
S phase cell percentage (HepG2 cells [4]; HepG2, 6k 0.50 μM): 22.68%
G1 phase cell percentage (HepG2 cells [4]; HepG2, 6k 0.50 μM): 47.82%
G2 phase cell percentage (HepG2 cells [4]; HepG2, 6k 1.0 μM): 32.16%
S phase cell percentage (HepG2 cells [4]; HepG2, 6k 1.0 μM): 26.95%
G1 phase cell percentage (HepG2 cells [4]; HepG2, 6k 1.0 μM): 40.88%
total cell percentages of G1 and S phases (HepG2 cells [4]; HepG2, 6k 1.0 μM, 72 h (control 82.00%)): 67.83%
IC50 (Hep3B cells): 1600 ± 110 nM
Bax expression [5]: upregulated Bax expression
Bcl-2 expression [5]: downregulated Bcl-2 expression
caspase-3 [5]: activated caspase-3
cytochrome C release [5]: promoted cytochrome C release
IC50 (Sk-Hep-1 cells): 1690 ± 70 nM
logD [6]: 3.87
ΔTm(B) = Tm(F10T + compound) - Tm(F10T) (duplex DNA (F10T)): 0.8 °C
